{"source": "patent US9648880B2", "about": "“Antifungal agents and uses thereof” (University of Massachusetts, priority 2012, dated 2017)", "key": {"[1]": {"test_system": "C. elegans infected with C. albicans", "experiment": "C. elegans pathogenesis assay", "format": "in vivo, Caenorhabditis elegans", "conditions": "12.5 μM", "method": "We therefore tested whether compound #4 can alter fungal infections in two in vivo settings. First, we performed pathogenesis assays in which nematodes (Caenorhabditis elegans) are infected with C. albicans, resulting in killing of the nematode host (Jain, 2009; Okoli, 2009). We used this assay to test whether compound #4 might have a protective effect, exposing C. elegans to Candida albicans and either DMSO vehicle, the commonly used antifungal drug fluconazole at 12.5 μM, or compound #4 at the same concentration. […] Therefore, consistent with its in vitro activities, compound #4 functions as an antifungal agent in this model infection system.\nThree worms in the L3/L4 stage were transferred to each of two NGM agar plates containing E. coli OP50 and grown at 20° C. for four days. On the day of the experiment, worms were washed off the plates with M9 buffer and centrifuged at 900×g for 2 min. The supernatant was removed, and the worms were then resuspended in a bleach solution (1:4 dilution of commercial bleach (5.25%) diluted in 0.25 M sodium hydroxide). The worm suspension was mixed gently by inversion for 3 min, and centrifuged for 2 min at 2,000×g. The pellet containing the eggs was washed with M9 buffer and centrifuged at 2,000×g for 2 min and then resuspended in 500 μl M9 buffer. […]"}, "[2]": {"test_system": "fluconazole-resistant C. albicans strains", "experiment": "fluconazole synergy assay", "format": "cell-based, Candida albicans", "conditions": "24 hrs, 37° C.; alamarBlue without wash", "method": "FIGS. 10A-10B. […] Candida strains were identified from AIDS patients (3919, an initial progenitor isolate, and the subsequently isolated 4617 and 4639 strains). These were coincubated in the presence of either compounds #4, #Q1, fluconazole alone or a combination of fluconazole with either #4 or #Q1 for 24 hrs in polystyrene plates at 37° C. Viability was assessed using alamarBlue reagent as described (Youngsaye, supra).\nFinally, we tested whether compound #4 would inhibit growth of fluconazole-resistant C. albicans strains in the presence of low levels of fluconazole, because that is the activity described for compound Q1 (Youngsaye supra). To measure cell viability rather than adhesion, we performed alamarBlue-based viability measurements without wash steps, using fluconazole-resistant C. albicans strains obtained from an AIDS patient who had been treated with fluconazole for oral candidaisis (Bachmann, 2002).\nAssays to test for synergies between compound #4 and fluconazole were performed as described (Youngsaye, 2011, supra), except we used a 96-well rather than a 384-well format. […] At the end of 24 hours of incubation, viability was evaluated without washing steps, using alamarBlue as previously described (Youngsaye, 2011, supra)."}, "[3]": {"test_system": "C. albicans SC5314 on excised murine vaginal mucosal tissue", "experiment": "ex vivo mouse vaginal mucosal infection (VVC)", "conditions": "24 h", "method": "FIG. 6A-6B. Effects on metazoan hosts. FIG. 6A is a graph showing the lifespan of C. elegans exposed to C. albicans treated with 12.5 μM compound #4 (lower graph line) or 12.5 μM fluconazole (upper graph line) compared to untreated (middle graph line). […] FIG. 6B is a series of photographs showing microscopic analysis of ex vivo vaginal mucosal biofilm formation. Mice were administered estrogen and vaginae were harvested. Tissues were either uninfected, or pretreated with DMSO or 50 μM compound #4, and then inoculated with C. albicans SC5314 (10^6 blastoconidia) and incubated for 24 h. Tissues were bisected and processed for scanning electron microscopy (SEM), or confocal microscopy (CM) after staining with Calcofluor to detect yeast (blue) and Concavalin A to visualize extracellular matrix (red). SEM images were taken at 1000× magnification, and CM images at 600× magnification.\nIn this assay, excised murine vaginal mucosal tissue is tested as a substrate for infection by Candida cells, providing a rapid and simple method for optimizing treatment conditions prior to in vivo infection assays. The other readout in the assay is a measure of the number of viable fungal cells, expressed as colony forming units (CFU).\nThese ex vivo infections were performed as described (Harriott, 2010)."}, "[4]": {"test_system": "Aspergillus fumigatus", "experiment": "Aspergillus hyphal formation", "format": "cell-based", "conditions": "50 μM and 100 μM; RPMI overnight", "method": "FIGS. 26A-26D. Compound #4 inhibits hyphal formation of Aspergillus fumigatus. FIGS. 26A-26B are photographs showing hyphal development occurs normally in RPMI tissue culture media in the absence of treatment (FIG. 26A) and in the presence of 1% DMSO (control; FIG. 26B). Aspergillus hyphal development was inhibited in the presence of 50 μM and 100 μM compound #4 (FIGS. 26C and 26D, respectively).\nCompound #4 was also tested for its inhibitory effect on the growth of Aspergillus fumigatus. Fresh Aspergillus fumigatus conidia (spores) were grown in RPMI tissue culture media overnight in the presence of 1% DMSO (control), 50 μM compound #4, 100 μM compound #4, or no treatment (control) using methods similar to those described in Ramirez-Ortiz et al. (Cell Host & Microbe 9:415-424, 2011). […] This is the first step in germination of the spores, and is required for pathogenesis."}}, "note": "“Also recorded” adds a separate entry of the source."}
{"smiles": "Cc1ccc(C(=O)N2CCN(c3ccc([N+](=O)[O-])cc3)CC2)cc1Cl", "note": "[Compound 4]", "values": [{"measurement": "lifespan of infected worms", "setting": "[1]", "result": "significantly increased survival; also recorded: increased the lifespan of the infected worms"}, {"measurement": "viability/growth of fluconazole-resistant strains, alone or with low fluconazole", "setting": "[2]", "result": "did not affect fluconazole-resistant C. albicans viability, whether alone or in the presence of fluconazole"}, {"measurement": "CFU recovered", "setting": "[3]; 50 μM pretreatment", "result": "did not observe significant differences"}, {"measurement": "extracellular matrix (Concavalin A staining)", "setting": "[3]; 50 μM", "result": "still formed a carbohydrate-rich extracellular matrix"}, {"measurement": "hyphae formation or ECM production", "setting": "[3]; 50 μM", "result": "only partially inhibits hyphae formation or ECM production"}, {"measurement": "hyphal formation", "setting": "[4]", "result": "blocks hyphal formation at both concentrations tested"}]}
